The text below walks through data of US4224442A, “7-Ureido acetamido substituted cephalosporin antibiotics” (Eli Lilly and Company, priority 1975, dated 1980).

One data set has as its system Serratia marcescens. The data set is described as follows: Gradient Plate in vitro method, MIC. The class given is cell-based. The conditions noted are these: read-out: Minimum Inhibitory Concentration. The source says: (§1) The values in the table are the minimum inhibitory concentrations (MIC) for the test compounds against the indicated microorganisms. The MIC values were obtained in the Gradient Plate in vitro method for determining antibiotic activity.

For data set [1], the system named is Escherichia coli. Kind of data set: Gradient Plate in vitro method, MIC. The class given is cell-based. The conditions noted are these: read-out: Minimum Inhibitory Concentration.
Source text: as §1

A further data set deals with Staphylococcus aureus. Kind of data set: standard gear agar dilution method, MIC. In kind it is cell-based. The source says: In the standard gear agar dilution method, the MIC values for the above test compounds A through E against Staphylococcus aureus were as follows: A, 2; B, 1; C, 0.5; D, 2; and E, 0.5 mcg./m1.
Background: In agar dilution, organisms are placed on agar that contains the substance at set levels.

A further data set deals with V41. Kind of data set: Gradient Plate in vitro method, MIC. In kind it is cell-based, penicillin resistant Staphyloccus. The conditions noted are these: V41, penicillin resistant Staphylococcus, read-out: Minimum Inhibitory Concentration. The source says: (§2) The antibiotic activity of the cephalosporin compounds of the formula I is illustrated by the data presented in Table I for representative compounds. The values in the table are the minimum inhibitory concentrations (MIC) for the test compounds against the indicated microorganisms. The MIC values were obtained in the Gradient Plate in vitro method for determining antibiotic activity.
(§3) Minimum Inhibitory Concentration (mcg./ml.)
(§4) ^1 Test organisms V41, V32 and V84 are penicillin resistant
(§5) Staphyloccus, X400 is a methicillin resistant Staphylococcus.

A further data set has as its system V84. The data set is described as follows: Gradient Plate in vitro method, MIC. In kind it is cell-based, penicillin resistant Staphyloccus. The conditions noted are these: V84, penicillin resistant Staphylococcus, read-out: Minimum Inhibitory Concentration.
Source text: as §2, §3, §4, §5

A further data set deals with V32. Kind of data set: Gradient Plate in vitro method, MIC. In kind it is cell-based, penicillin resistant Staphyloccus. The conditions noted are these: V32, penicillin resistant Staphylococcus, read-out: Minimum Inhibitory Concentration.
Source text: as §2, §3, §4, §5

The next data set relates to X400. Kind of data set: Gradient Plate in vitro method, MIC. The conditions noted are these: X400, methicillin resistant Staphylococcus, read-out: Minimum Inhibitory Concentration. The class given is cell-based.
Source text: as §2, §3, §4, §5

The nature of data set [2]: Electrometric titration in 66 percent DMF. The class given is physicochemical. The conditions noted are these: 66% dmf.
For a further data set, the system named is Aerobacter aerogenes. The data set is described as follows: Gradient Plate in vitro method, MIC. In kind it is cell-based. The conditions noted are these: Klebsiella aerogenes, read-out: Minimum Inhibitory Concentration.
Source text: as §2, §3

Another data set has as its system Salmonella heidelberg. Kind of data set: Gradient Plate in vitro method, MIC. The conditions noted are these: Salmonella enterica, read-out: Minimum Inhibitory Concentration. The class given is cell-based.
Source text: as §2, §3

Another data set has as its system Shigella sp. The data set is described as follows: Gradient Plate in vitro method, MIC. The conditions noted are these: read-out: Minimum Inhibitory Concentration. In kind it is cell-based.
Source text: as §2, §3

Another data set deals with Klebsiella pneumoniae. Kind of data set: Gradient Plate in vitro method, MIC. The class given is cell-based. The conditions noted are these: read-out: Minimum Inhibitory Concentration.
Source text: as §2, §3

The test system of a further data set is Pseudomonas aeruginosa. Kind of data set: Gradient Plate in vitro method, MIC. The class given is cell-based. The conditions noted are these: read-out: Minimum Inhibitory Concentration.
Source text: as §2, §3

Data set [3] has as its system Escherichia coli. The data set is described as follows: in vivo effective dose in experimental infections in mice. The conditions noted are these: ip, E. coli infection in mice. An excerpt: (§6) The in vivo effective dose […] in mg./kg. for representative antibiotics of the formula I has been determined in experimental infections in mice. Table II lists the ED50 dose vs. Streptococcus pyogenes and Escherichia coli infections. In the table, the antibiotics are identified with the R", R', and R1 -R3 terms of Formula I. |Test Compound ED50 (mg/kg × 2) i.p.

Another data set has as its system Streptococcus pyogenes. Described as above. The conditions noted are these: ip, S. pyogenes infection in mice.
Source text: as §6

Molecules are shown by their SMILES. Converted amounts (≈) assume the structure as drawn. A value given as a limit tells only on which side of the number the result lay.

In the case of `CNC(=O)N(C)C(=O)NC(C(=O)NC1C(=O)N2C(C(=O)O)=C(CSc3nnc(C)s3)CSC12)c1ccc(O)cc1` (stereo not drawn) [Test Compound B, 7-[α-(3-methylcarbamoyl-3-methyl-1-ureido)-α-(4-hydroxyphenyl)acetamido]-3-(5-methyl-1,3,4-thiadiazole-2-ylthiomethyl)-3-cephem-4-carboxylic acid], the MIC in the data set with Serratia marcescens came to 19 µg/mL (≈ 31.3 µM); in the data set on Escherichia coli [1] it was 4 µg/mL (≈ 6.58 µM); in the data set with Staphylococcus aureus, 1 µg/mL (≈ 1.65 µM); with V41, 8 µg/mL (≈ 13.2 µM); in the data set with V84 it was 0.6 µg/mL (≈ 0.987 µM); with V32, 10 µg/mL (≈ 16.5 µM). Also, the MIC is greater than 20 µg/mL in the data set with X400; 4 µg/mL (≈ 6.58 µM) with Aerobacter aerogenes; 2 µg/mL (≈ 3.29 µM) with Salmonella heidelberg; 3 µg/mL (≈ 4.94 µM) in the data set with Shigella sp.; 4 µg/mL (≈ 6.58 µM) in the data set with Klebsiella pneumoniae; 28 µg/mL (≈ 46.1 µM) with Pseudomonas aeruginosa. Besides, the figures for the pKa in data set [2] (first of two titratable groups) and in data set [2] (second of two titratable groups) were 4.8 and 12.2, respectively.
As for `CNC(=O)N(C)C(=O)NC(C(=O)NC1C(=O)N2C(C(=O)O)=C(CSc3nnnn3C)CSC12)c1ccc(O)cc1` (stereo not drawn) [Test Compound A, 7-[α-(3-methylcarbamoyl-3-methyl-1-ureido)-α-(4-hydroxyphenyl)acetamido]-3-(1-methyl-1H-tetrazole-5-ylthiomethyl)-3-cephem-4-carboxylic acid], the MIC was 8 µg/mL (≈ 13.5 µM) with Serratia marcescens; 1 µg/mL (≈ 1.69 µM) in the data set with Escherichia coli [1]; 2 µg/mL (≈ 3.38 µM) against Staphylococcus aureus; 4 µg/mL (≈ 6.76 µM) in the data set on V41; 0.6 µg/mL (≈ 1.01 µM) in the data set on V84; 4.8 µg/mL (≈ 8.11 µM) with V32. For the same molecule, the MIC was greater than 20 µg/mL with X400; 1 µg/mL (≈ 1.69 µM) in the data set on Aerobacter aerogenes; 1 µg/mL (≈ 1.69 µM) in the data set with Salmonella heidelberg; 1 µg/mL (≈ 1.69 µM) in the data set with Shigella sp.; 3.5 µg/mL (≈ 5.92 µM) in the data set on Klebsiella pneumoniae; 18 µg/mL (≈ 30.4 µM) in the data set with Pseudomonas aeruginosa. Further, the ED50 (in general, the dose at which the effect has come halfway, by size or by number of responders) in the data set on Escherichia coli [3] is 72 mg/kg; in the data set on Streptococcus pyogenes it was 0.7 mg/kg.
